# Laboratory results taken from patent US10143201B2, “Fungicidal compositions” (Syngenta Crop Protection LLC, priority 2007, dated 2018).
# Assays:
# Assay type in all cases: cell-based
# [1] = system: Pseudocercosporella herpotrichoides (syn. Tapesia yallundae); test: Fungicidal action against Pseudocercosporella herpotrichoides (eye spot of cereals), microtiter growth inhibition; conditions: Oculimacula yallundae, alone; for inhibition at 0.0156 ppm / inhibition at 0.25 ppm: read-out: % activity; for inhibition at 0.125 ppm: 0.1250 ppm; for inhibition at 0.25 ppm: 0.2500 ppm
# Procedure: Example B5: Funicidal Action Against Pseudocercosporella herpotrichoides (Syn. Tapesia yallundae), Eye Spot of Cereals
# (§1) Conidia of the fungus from cryogenic storage are directly mixed into nutrient broth (PDB potato dextrose broth). After placing a (DMSO) solution of the test compounds into a microtiter plate (96-well format) the nutrient broth containing the fungal spores is added. The test plates are incubated at 24° C. and the inhibition of growth is evaluated after 4 days. The expected fungicidal action is calculated according to the Colby method.
# Pyrenophora teres = test: Fungicidal action against Pyrenophora teres (net blotch), microtiter growth inhibition; conditions: for inhibition at 0.125 ppm / inhibition at 0.5 ppm / inhibition at 1 ppm / inhibition at 0.0625 ppm: read-out: % activity; for inhibition at 0.5 ppm: 0.5000 ppm; for % activity: alone; for inhibition at 0.25 ppm: 0.2500 ppm
# Procedure: Example B6: Fungicidal Action Against Pyrenophora teres (Net Blotch)
# as §1
# Botrytis cinerea = test: Fungicidal action against Botrytis cinerea (gray mould), microtiter growth inhibition; conditions: alone
# Procedure: Example B2: Fungicidal Action Against Botrytis cinerea (Gray Mould)
# as §1
# Septoria tritici = test: Fungicidal action against Septoria tritici (leaf blotch), microtiter growth inhibition; conditions: alone; for inhibition at 0.125 ppm: 0.1250 ppm
# Procedure: Example B3: Fungicidal Action Against Septoria tritici (Leaf Blotch)
# as §1
# Alternaria solani = test: Fungicidal action against Alternaria solani (early blight tomato/potato), microtiter growth inhibition; conditions: alone
# Procedure: Example B4: Fungicidal Action Against Alternaria solani (Early Blight Tomato/Potato)
# as §1, with “after 3” for “after 4”
# Gaeumannomyces graminis = test: Fungicidal action against Gaeumannomyces graminis (take-all of cereals), microtiter growth inhibition; conditions: Gaeumannomyces graminis, compound alone
# Procedure: Example B7: Fungicidal Action Against Gaeumannomyces graminis (Take-all of Cereals)
# as §1, with “Mycelial fragments” for “Conidia”, “24 C” for “24° C.”, “days.” for “days. The expected fungicidal action is calculated according to the Colby method.”
# [2] = system: Cercospora arachidicola (syn. Mycosphaerella arachidis); test: Fungicidal action against Cercospora arachidicola (brown leaf spot of groundnut), microtiter growth inhibition; conditions: Mycosphaerella arachidis, compound alone
# Procedure: Example B8: Fungicidal Action Against Cercospora arachidicola (Syn. Mycosphaerella arachidis), Brown Leaf Spot of Groundnut (Peanut)
# as §1, with “24 C” for “24° C.”, “7” for “4”, “days.” for “days. The expected fungicidal action is calculated according to the Colby method.”
# [3] = Pyrenophora teres, compound alone, 0.1250 ppm
# [4] = Pyrenophora teres, compound alone
# [5] = Zymoseptoria tritici, 0.0625 ppm, read-out: % activity
# [6] = Zymoseptoria tritici, read-out: % activity
# [7] = Alternaria solani, 0.2500 ppm, read-out: % activity
# [8] = Pyrenophora teres, compound alone, 0.0625 ppm
structure (smiles),measurement,setting,value
"Fc1ccc([C@]2(Cn3cncn3)O[C@H]2c2ccccc2Cl)cc1 (racemic) [Epoxiconazole, epoxiconazole]",inhibition at 0.0156 ppm,[1],0%
same,inhibition at 0.125 ppm,[1],70%
same,inhibition at 0.25 ppm,[1],90%
same,inhibition at 0.125 ppm,Pyrenophora teres; [3],20%
same,inhibition at 0.5 ppm,Pyrenophora teres; [4],50%
same,inhibition at 1 ppm,Pyrenophora teres; [4],70%
"CO/C=C(/C(=O)OC)c1ccccc1Oc1cc(Oc2ccccc2C#N)ncn1 [Azoxystrobin, azoxystrobin]",% activity,Botrytis cinerea; 0.1250 ppm,0%
same,% activity,Botrytis cinerea; 0.2500 ppm,0%
same,% activity,Botrytis cinerea; 0.5000 ppm,0%
same,% activity,Botrytis cinerea; 1.0000 ppm,0%
same,% activity,Botrytis cinerea; 2.0000 ppm,0%
same,% activity,Septoria tritici; 0.0625 ppm,70%
same,% activity,Alternaria solani; 0.0156 ppm,20%
same,% activity,Alternaria solani; 0.0313 ppm,20%
same,% activity,Alternaria solani; 0.0625 ppm,20%
same,% activity,Alternaria solani; 0.2500 ppm,50%
same,% activity,Alternaria solani; 0.5000 ppm,50%
same,% activity,Pyrenophora teres; 0.0313 ppm,20%
same,% activity,Pyrenophora teres; 0.0625 ppm,50%
same,% activity,Pyrenophora teres; 0.1250 ppm,70%
"N#Cc1c(Cl)c(Cl)c(Cl)c(C#N)c1Cl [Chlorothalonil, chlorothalonil]",inhibition at 0.0625 ppm,Septoria tritici; [5],0%
same,inhibition at 0.125 ppm,Septoria tritici; [6],0%
same,inhibition at 0.0156 ppm,[1],0%
same,inhibition at 0.0313 ppm,[1],50%
same,inhibition at 0.125 ppm,[1],90%
same,inhibition at 0.25 ppm,Pyrenophora teres; [4],0%
same,inhibition at 0.5 ppm,Pyrenophora teres; [4],20%
"O=C(NCCc1ncc(C(F)(F)F)cc1Cl)c1ccccc1C(F)(F)F [Compound B-5.12, N-{2-[3-chloro-5-(trifluoromethyl)pyridin-2-yl]ethyl}-2-(trifluoromethyl)benzamid]",inhibition at 0.0039 ppm,Gaeumannomyces graminis; read-out: % activity,0%
same,inhibition at 0.0078 ppm,"Gaeumannomyces graminis; 0.0078 ppm, read-out: % activity",0%
same,inhibition at 0.0156 ppm,Gaeumannomyces graminis,0%
same,inhibition at 0.0313 ppm,Gaeumannomyces graminis; read-out: % activity,0%
same,inhibition at 0.125 ppm,Gaeumannomyces graminis; 0.1250 ppm,0%
same,inhibition at 0.25 ppm,Gaeumannomyces graminis; 0.2500 ppm,0%
same,inhibition at 0.5 ppm,Gaeumannomyces graminis; 0.5000 ppm,0%
same,inhibition at 1 ppm,Gaeumannomyces graminis; 1.0000 ppm,0%
same,inhibition at 2 ppm,Gaeumannomyces graminis; 2.0000 ppm,0%
same,inhibition at 0.0313 ppm,[2]; 0.0313 ppm,0%
same,inhibition at 0.0625 ppm,[2]; 0.0625 ppm,0%
same,inhibition at 0.125 ppm,[2]; 0.1250 ppm,20%
same,inhibition at 0.25 ppm,[2]; 0.2500 ppm,20%
"CC(C1CC1)C(O)(Cn1cncn1)c1ccc(Cl)cc1 (centres unmarked) [Cyproconazole, cyproconazole]",inhibition at 0.125 ppm,"Alternaria solani; Alternaria solani, 0.1250 ppm",0%
same,inhibition at 0.25 ppm,Alternaria solani; [7],0%
same,inhibition at 0.5 ppm,"Alternaria solani; Alternaria solani, 0.5000 ppm, read-out: % activity",20%
same,inhibition at 0.25 ppm,[1],70%
same,inhibition at 0.0039 ppm,Gaeumannomyces graminis; read-out: % activity,0%
same,inhibition at 0.0313 ppm,Gaeumannomyces graminis; read-out: % activity,0%
same,inhibition at 0.0625 ppm,Gaeumannomyces graminis; read-out: % activity,20%
"Cc1cc(C2CC2)nc(Nc2ccccc2)n1 [Cyprodinil, cyprodinil]",inhibition at 0.125 ppm,Septoria tritici; [6],0%
same,inhibition at 0.25 ppm,"Septoria tritici; Zymoseptoria tritici, 0.2500 ppm, read-out: % activity",0%
same,inhibition at 0.5 ppm,"Septoria tritici; Zymoseptoria tritici, 0.5000 ppm, read-out: % activity",0%
same,inhibition at 1 ppm,"Septoria tritici; Zymoseptoria tritici, 1.0000 ppm",0%
same,inhibition at 2 ppm,"Septoria tritici; Zymoseptoria tritici, 2.0000 ppm",0%
same,inhibition at 0.25 ppm,Alternaria solani; [7],50%
same,inhibition at 0.0156 ppm,[1],20%
same,inhibition at 0.0313 ppm,[1],70%
same,inhibition at 0.0313 ppm,"Pyrenophora teres; Pyrenophora teres, compound alone, 0.0313 ppm",20%
same,inhibition at 0.0625 ppm,Pyrenophora teres; [8],20%
same,inhibition at 0.125 ppm,Pyrenophora teres; [3],50%
same,inhibition at 0.25 ppm,Pyrenophora teres; [4],50%
"CC1COC(Cn2cncn2)(c2ccc(Oc3ccc(Cl)cc3)cc2Cl)O1 (centres unmarked) [Difenoconazole, difenoconazole]",inhibition at 0.0313 ppm,"Septoria tritici; Zymoseptoria tritici, 0.0313 ppm",50%
same,inhibition at 0.0625 ppm,Septoria tritici; [5],90%
same,inhibition at 0.125 ppm,[1],50%
same,inhibition at 0.0625 ppm,Pyrenophora teres; [8],20%
same,inhibition at 0.125 ppm,Pyrenophora teres; [3],50%
same,inhibition at 0.25 ppm,Pyrenophora teres; [4],50%
same,inhibition at 0.5 ppm,Pyrenophora teres; [4],70%
same,inhibition at 1 ppm,Pyrenophora teres; [4],70%
same,inhibition at 0.0039 ppm,Gaeumannomyces graminis; read-out: % activity,0%
same,inhibition at 0.0156 ppm,Gaeumannomyces graminis,0%
same,inhibition at 0.0313 ppm,Gaeumannomyces graminis; read-out: % activity,0%
same,inhibition at 0.0625 ppm,Gaeumannomyces graminis; read-out: % activity,0%
